In US9808470B2, “Estrogenic components for use in the treatment of neurological disorders” (UNIVERSITE DE LIEGE, priority 2012, dated 2017):

Tests used:
Type in all cases: in vivo
[1] = system: CD11b-positive cells; assay: Ex.6 IL-1β induced diffuse white matter injury mouse model: microglial phenotype gene expression (qRT-PCR)
Description: Experimental protocols were approved by the institutional guidelines of the Institut National de la Santé et de la Recherche Scientifique (Inserm, France), and met the guidelines for the United States Public Health Service's Policy on Humane Care and Use of Laboratory Animals (NIH, Bethesda, Md., USA). Experiments were performed using OF1 strain mice purchased from Charles River (L'Arbresle, France) and born in our animal facility. Animals were housed under a 12 h light-dark cycle, had access to food and water ad libitum. Sex was determined at birth and confirmed at sacrifice. To avoid any potential variability linked to sex to differences. only male pups were used. Mice received twice a day from P1 to P4 and once on P5 a 5 μl intraperitoneal injection containing either PBS alone (sham group) or 10 μg/kg/dose recombinant mouse IL-1β in PBS. Vehicle group received only IL-1β injections while 10 μg E4 (5 mg/kg) or 20 μg E4 (10 mg/kg) was added to IL-1β once a day from P1 to P5 for E4 treated groups. Pups were sacrificed 3 hours after the first intraperitoneal injection at P1, 3 hours after last treatment at P5 or at P10 by intracardiac perfusion with NaCl 0.9% after anaesthesia by inhaled isoflurane.
At P1 and P5, brains were collected for cell dissociation and CD11b-positive (P1 and P5) and O4-positive (P5) cell enrichment using a magnetic coupled antibody extraction technique (MACS), as previously described and according to the manufacturer's protocol (Miltenyi Biotec, Bergisch Gladbach, Germany). The CD11b antigen is expressed on the surface of microglial cells while the O4 antigen is expressed on the cell surface of pre-OLs (Back et al., 2001). Briefly, after removing the cerebellum and olfactory bulbs, brains were pooled (n=3 at P1 and n=2 at P5) and dissociated using the neural tissue dissociation kit containing papain. From the resulting brain homogenate CD11b-positive cells (P1) and O4-positive then CD11b-positive cells (P5) were enriched by MACS, using the anti-CD11b or anti-O4 MicroBeads. After elution the isolated cells were centrifuged for 5 min at 600 g at 4° C. and conserved at −80° C.
Preparation of samples for quantitative reverse-transcriptase polymerase-chain reaction (qRT-PCR), primer design, and PCR protocol, were similar to that previously described (Favrais et al., 2011; Chhor et al., 2013). Briefly, RNA extraction was performed by with RNeasy mini kit according to the manufacturer's instructions (Qiagen, Courtaboeuf, France). RNA quality and concentration were assessed by spectrophotometry with the Nanodrop™ apparatus (Thermoscientific, Wilmington, Del., USA). Total RNA (0.5-1 μg) was subjected to reverse transcription using the iScript™ cDNA synthesis kit (Bio-Rad, Marnes-la-Coquette, France). qPCR was using SYBR Green Supermix (Bio-Rad). The relative expression of genes of interest (GOI) were expressed relative to expression of the reference gene, ribosomal protein L13a (Rpl13a) for CD11b+ cells and Glyceraldehyde 3-phosphate dehydrogenase (GAPDH) for O4+ cells and anterior brains based on reference gene suitability testing. Analyses were performed with the Biorad CFX manager 2.1 software. The relative quantities are expressed as the specific ratio between the gene of interest and Rpl13 or GAPDH. The data are presented as relative mRNA units with respect to control values (expressed as a fold-difference with respect to the mean of sham values).

[2] = Ex.3 neuroprotective HIE rat model: brain weight; conditions: PND14
Description: Animals were then perfused transcardially with 0.9% saline solution at 4° C., and then with 4% paraformaldehyde in a 0.1-mol/L phosphate-buffered saline solution (pH 7.4) at 4° C. The brains were quickly isolated, weighed and immersed in the same fixative solution at 4° C. for 24 hours, dehydrated with a graded series of ethanol and xylene, and embedded in paraffin.
(§1) Newborn rat pups were assigned to one of the following 6 groups from postnatal day 4: Sham group (n=24), Vehicle group (n=14), E4 1 mg/kg/per day group (n=11), E4 5 mg/kg/per day group (n=14), E4 10 mg/kg/per day group (n=14), or E4 50 mg/kg/per day group (n=19). From postnatal day 4, rat pups were intraperitoneally injected either vehicle (Vehicle group) or E4 (1, 5, 10, or 50 mg/kg/per day in accordance to the E4 group assignment) or neither vehicle nor E4 (Sham group). At day 7, 30 minutes after last injection, animals were anesthetized with isoflurane (induction, 3.0%; maintenance, 1.5%), and the rat pups from Vehicle and E4 groups passed through surgery encompassing left common carotid artery double ligation and cut. After the procedure, the pups were returned to their dams and were allowed to recover for 1 hour. The pups were then placed in the humidified hypoxic in vivo cabinet (CoyLab, Grass Lake, Mich., USA). Hypoxia was produced by the inhalation of 11%-8% of oxygen balanced by nitrogen at decreased concentration of oxygen for 20 minutes, followed by inhalation of 8% oxygen and 92% nitrogen at constant concentration for 35 minutes. All the manipulations were performed at 37° C. The Sham group went through similar procedures without left common carotid artery ligation followed by hypoxia nor injection. Rat pups recovered with their dams and reared normally until being sacrificed at postnatal day 14.

[3] = system: doublecortin (DCX); assay: Ex.3 neuroprotective HIE rat model: doublecortin staining
Description: The sections were heated in 10 mmol/L citrate buffer (pH 6.0) at 100° C. for 10 minutes. Endogenous peroxidase activity was blocked with 3% hydrogen peroxide for 10 minutes and after a second blocking with 5% normal goat serum, the sections were incubated with anti-doublecortin (DCX) antibody, diluted 1:1000 (rabbit polyclonal antibody; Abcam, Cambridge, UK) and anti-vascular endothelial growth factor (VEGF) antibody, diluted 1:100 (mouse monoclonal antibody; Abcam, Cambridge, UK) overnight at 4° C. After rinsing, Alexa Fluor® goat anti-rabbit, diluted 1:1000 and Alexa Fluor® goat anti-mouse, diluted 1:1000 (Invitrogen Inc., Ghent, Belgium) were added and sections were incubated 1 h at room temperature. Mounting medium containing 4′,6-diamidino-2-phenylindole (DAPI) for fluorescent studies was used (Vector Laboratories). Samples were analyzed with the aid of a microscope (Olympus Vanox AHBT3, Olympus), and the ImageJ software (NIH). The percentage of positively stained cells was quantified as a sum of positively stained either DCX or VEGF cells divided by the total number of DAPI positive cells expressed in percentage.
as §1

[4] = IL-1β P1 to P5 + E4 10 mg/kg, P5
[5] = IL-1β+E4 5 mg/kg ip, P1, 3 h post-treatment, vs IL-1β group
[6] = IL-1β+E4 5 and 10 mg/kg ip, P1, vs IL-1β group

## C[C@]12CC[C@@H]3c4ccc(O)cc4CC[C@H]3[C@@H]1[C@@H](O)[C@@H](O)[C@@H]2O [E4, 1,3,5(10)-estratrien-3,15α,16α,17β-tetrol]
[1]; IL-1β P1 to P5 + E4 5 mg/kg, P5
  over-expression of IL1Rn (M2b): significantly limited
[1]; [4]
  inflammation induced over-expression of IL1Rn (M2b): prevented
  inflammation induced over-expression of IL4Ra (M2b): prevented
  inflammation induced over-expression of iNOS (M1): prevented
[1]; [5]
  expression of CD32 mRNA (M1): significantly down-regulated
  expression of CD86 mRNA (M1): significantly down-regulated
[1]; IL-1β+E4 10 mg/kg ip, P1
  expression of genes associated with the M2a repair/regeneration phenotype: non-significant trend to the up-regulation
[1]; IL-1β+E4 10 mg/kg ip, P1, vs IL-1β group
  expression of Ptgs2 mRNA (M1): significantly decreased
[1]; [6]
  expression of IL1RN (M2b): decreased
  expression of Sphk1 (M2b): decreased
  iNOS mRNA (M1): significantly decreased
[2]; 1 mg/kg E4 ip PND4-7 before HI
  brain weight: 1.155 ± 0.022 g
[2]; 5 mg/kg E4 ip PND4-7 before HI
  brain weight: 1.181 ± 0.023 g
[2]; 10 mg/kg E4 ip PND4-7 before HI
  brain weight: 1.179 ± 0.012 g
[2]; 50 mg/kg E4 ip PND4-7 before HI
  brain weight: 1.163 ± 0.016 g
[3]; 5 mg/kg E4 ip PND4-7 before HI, CA1
  percentage of DCX positively stained cells: 35.2±3.309%
[3]; 5 mg/kg E4 ip PND4-7 before HI, CA2/CA3
  percentage of DCX positively stained cells: 30.3±3.7%
[3]; 10 mg/kg E4 ip PND4-7 before HI, CA1
  percentage of DCX positively stained cells: 34.1±6.664%
[3]; 10 mg/kg E4 ip PND4-7 before HI, DG
  percentage of DCX positively stained cells: 55.8±5.658%
[3]; 10 mg/kg E4 ip PND4-7 before HI, cortex
  percentage of DCX positively stained cells: 52.1±7.762%
